# Read-outs that look alike come from different tables or passages of the source.
# Legend:
# [1] = cited from earlier work
# [2] = Stability/compatibility of carglumic acid-excipient binary mixes, HPLC chromatographic purity; type: physicochemical
# Description: Carglumic acid alone was also stored under the same conditions. […] Chromatographic purity have been tested for all the reported combinations and storage conditions. Under these chromatographic conditions the retention time (Rt) of carglumic acid is about 6.6 min. […] [table] [table]
# [3] = 25° C./60% RH Closed bottles, 15 days
# [4] = 25° C./60% RH Closed bottles, 30 days
# [5] = 25° C./60% RH Open bottles, 7 days
# [6] = 25° C./60% RH Open bottles, 15 days
# [7] = 40° C./75% RH Closed bottles, 15 days
# [8] = 40° C./75% RH Closed bottles, 30 days
smiles,measurement,setting,value
"NC(=O)N[C@@H](CCC(=O)O)C(=O)O [Carglumic Acid, Carglumic acid]",Solubility,[1]; boiling water,soluble
same,Solubility,[1]; cold water,slightly soluble
same,Solubility,"[1]; organic solvents (cyclohexane, dichloromethane, ether)",practically insoluble
same,Imp. 1 RRT 1.93,[2]; [3],0.01%
same,Imp. 2 RRT 2.21,[2]; [3],0.00%
same,Imp. 5a RRT 2.34,[2]; [3],0.01%
same,Imp. 5b RRT 2.77,[2]; [3],0.00%
same,Imp. 6 RRT 1.20,[2]; [3],0.00%
same,"Max, single unknown impurity",[2]; [3],0.03%
same,Total impurities,[2]; [3],0.08%
same,Imp. 1 RRT 1.93,[2]; [4],0.03%
same,Imp. 2 RRT 2.21,[2]; [4],0.01%
same,Imp. 5a RRT 2.34,[2]; [4],0.01%
same,Imp. 5b RRT 2.77,[2]; [4],0.00%
same,Imp. 6 RRT 1.20,[2]; [4],0.00%
same,"Max, single unknown impurity",[2]; [4],0.03%
same,Total impurities,[2]; [4],0.08%
same,Imp. 1 RRT 1.93,[2]; [5],0.03%
same,Imp. 2 RRT 2.21,[2]; [5],0.01%
same,Imp. 5a RRT 2.34,[2]; [5],0.02%
same,Imp. 5b RRT 2.77,[2]; [5],0.00%
same,Imp. 6 RRT 1.20,[2]; [5],0.00%
same,"Max, single unknown impurity",[2]; [5],0.05%
same,Total impurities,[2]; [5],0.18%
same,Imp. 1 RRT 1.93,[2]; [6],0.04%
same,Imp. 2 RRT 2.21,[2]; [6],0.01%
same,Imp. 5a RRT 2.34,[2]; [6],0.00%
same,Imp. 5b RRT 2.77,[2]; [6],0.00%
same,Imp. 6 RRT 1.20,[2]; [6],0.00%
same,"Max, single unknown impurity",[2]; [6],0.02%
same,Total impurities,[2]; [6],0.11%
same,Imp. 1 RRT 1.93,[2]; [7],0.03%
same,Imp. 2 RRT 2.21,[2]; [7],0.01%
same,Imp. 5a RRT 2.34,[2]; [7],0.01%
same,Imp. 5b RRT 2.77,[2]; [7],0.01%
same,Imp. 6 RRT 1.20,[2]; [7],0.00%
same,"Max, single unknown impurity",[2]; [7],0.02%
same,Total impurities,[2]; [7],0.12%
same,Imp. 1 RRT 1.93,[2]; [8],0.03%
same,Imp. 2 RRT 2.21,[2]; [8],0.01%
same,Imp. 5a RRT 2.34,[2]; [8],0.01%
same,Imp. 5b RRT 2.77,[2]; [8],0.00%
same,Imp. 6 RRT 1.20,[2]; [8],0.00%
same,"Max, single unknown impurity",[2]; [8],0.03%
same,Total impurities,[2]; [8],0.11%
same,Imp. 1 RRT 1.93,"[2]; 60° C. Closed bottles, 1 day",0.03%
same,Imp. 2 RRT 2.21,"[2]; 60° C. Closed bottles, 1 day",0.01%
same,Imp. 5a RRT 2.34,"[2]; 60° C. Closed bottles, 1 day",0.01%
same,Imp. 5b RRT 2.77,"[2]; 60° C. Closed bottles, 1 day",0.00%
same,Imp. 6 RRT 1.20,"[2]; 60° C. Closed bottles, 1 day",0.00%
same,"Max, single unknown impurity","[2]; 60° C. Closed bottles, 1 day",0.02%
same,Total impurities,"[2]; 60° C. Closed bottles, 1 day",0.10%
same,Imp. 1 RRT 1.93,[2]; t = 0,0.02%
same,Imp. 2 RRT 2.21,[2]; t = 0,0.01%
same,Imp. 5a RRT 2.34,[2]; t = 0,0.00%
same,Imp. 5b RRT 2.77,[2]; t = 0,0.01%
same,Imp. 6 RRT 1.20,[2]; t = 0,0.00%
same,"Max, single unknown impurity",[2]; t = 0,0.03%
same,Total impurities,[2]; t = 0,0.07%

# Source: patent publication US20200397728A1, “PHARMACEUTICAL FORMULATION FOR CARGLUMIC ACID” (RECORDATI S.p.A., priority 2019, published 2020)
